Measurements published in the kinase profiling compilation of Christmann-Franck et al. (2016).

What was measured:
Test in all cases: radiometric filter-binding kinase assay, Kinase HotSpot
Settings in all cases: compound 0.5 µM; ATP 10 µM
[1] = molecular target: ACVR1 (human) (UniProt Q04771)
[2] = molecular target: AURKB (human) (UniProt Q96GD4)
[3] = molecular target: BTK (human) (UniProt Q06187)
[4] = molecular target: CDK2 CCNE1 (human) (UniProt P24941+P24864)
[5] = molecular target: CDK7 CCNH MNAT1 (human) (UniProt P50613+P51948+P51946)
[6] = molecular target: CHEK1 (human) (UniProt O14757)
[7] = molecular target: CLK2 (human) (UniProt P49760)
[8] = molecular target: CSNK1D (human) (UniProt P48730)
[9] = molecular target: DAPK2 (human) (UniProt Q9UIK4)
[10] = molecular target: EPHA3 (human) (UniProt P29320)
[11] = molecular target: EPHB4 (human) (UniProt P54760)
[12] = molecular target: ERBB4 (human) (UniProt Q15303)
[13] = molecular target: FGFR2 (human) (UniProt P21802)
[14] = molecular target: FRK (human) (UniProt P42685)
[15] = molecular target: HIPK2 (human) (UniProt Q9H2X6)
[16] = molecular target: IRAK1 (human) (UniProt P51617)
[17] = molecular target: JAK1 JH1 catalytic (human) (UniProt P23458)
[18] = molecular target: MAPK3 (human) (UniProt P27361)
[19] = molecular target: MATK (human) (UniProt P42679)
[20] = molecular target: MUSK (human) (UniProt O15146)
[21] = molecular target: MYLK (human) (UniProt Q15746)
[22] = molecular target: MYLK2 (human) (UniProt Q9H1R3)
[23] = molecular target: NEK1 (human) (UniProt Q96PY6)
[24] = molecular target: NEK2 (human) (UniProt P51955)
[25] = molecular target: NEK4 (human) (UniProt P51957)
[26] = molecular target: NEK6 (human) (UniProt Q9HC98)
[27] = molecular target: NEK9 (human) (UniProt Q8TD19)
[28] = molecular target: NUAK2 (human) (UniProt Q9H093)
[29] = molecular target: PDPK1 (human) (UniProt O15530)
[30] = molecular target: PLK3 (human) (UniProt Q9H4B4)
[31] = molecular target: PRKCD (human) (UniProt Q05655)
[32] = molecular target: PRKCH (human) (UniProt P24723)
[33] = molecular target: PRKD2 (human) (UniProt Q9BZL6)
[34] = molecular target: PTK2B (human) (UniProt Q14289)
[35] = molecular target: RET (human) (UniProt P07949)
[36] = molecular target: RPS6KA5 KD2 (human) (UniProt O75582)
[37] = molecular target: SIK2 (human) (UniProt Q9H0K1)
[38] = molecular target: SRMS (human) (UniProt Q9H3Y6)
[39] = molecular target: SRPK2 (human) (UniProt P78362)
[40] = molecular target: TBK1 (human) (UniProt Q9UHD2)
[41] = molecular target: TEC (human) (UniProt P42680)
[42] = molecular target: TGFBR1 (human) (UniProt P36897)

PRKCH (human), sequence (P24723 whole entry, looked up): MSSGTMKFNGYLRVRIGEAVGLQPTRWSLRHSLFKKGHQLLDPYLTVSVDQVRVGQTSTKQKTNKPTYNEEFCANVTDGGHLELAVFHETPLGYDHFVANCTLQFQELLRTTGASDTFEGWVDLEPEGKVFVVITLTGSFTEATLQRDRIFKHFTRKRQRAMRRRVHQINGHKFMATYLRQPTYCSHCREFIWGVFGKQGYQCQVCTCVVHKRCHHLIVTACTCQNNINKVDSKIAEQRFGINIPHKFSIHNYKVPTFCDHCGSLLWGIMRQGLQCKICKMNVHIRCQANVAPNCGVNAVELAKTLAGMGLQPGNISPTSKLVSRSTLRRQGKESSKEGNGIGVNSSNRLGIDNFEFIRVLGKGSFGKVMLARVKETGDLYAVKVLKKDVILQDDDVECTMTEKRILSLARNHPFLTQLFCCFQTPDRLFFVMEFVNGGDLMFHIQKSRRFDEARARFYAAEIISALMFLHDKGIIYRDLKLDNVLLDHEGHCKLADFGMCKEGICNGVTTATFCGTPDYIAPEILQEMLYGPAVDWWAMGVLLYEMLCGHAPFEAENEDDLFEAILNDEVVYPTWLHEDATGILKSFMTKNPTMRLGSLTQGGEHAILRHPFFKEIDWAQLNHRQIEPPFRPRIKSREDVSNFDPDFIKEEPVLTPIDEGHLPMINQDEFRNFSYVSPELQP
NEK1 (human), sequence (Q96PY6 whole entry, looked up): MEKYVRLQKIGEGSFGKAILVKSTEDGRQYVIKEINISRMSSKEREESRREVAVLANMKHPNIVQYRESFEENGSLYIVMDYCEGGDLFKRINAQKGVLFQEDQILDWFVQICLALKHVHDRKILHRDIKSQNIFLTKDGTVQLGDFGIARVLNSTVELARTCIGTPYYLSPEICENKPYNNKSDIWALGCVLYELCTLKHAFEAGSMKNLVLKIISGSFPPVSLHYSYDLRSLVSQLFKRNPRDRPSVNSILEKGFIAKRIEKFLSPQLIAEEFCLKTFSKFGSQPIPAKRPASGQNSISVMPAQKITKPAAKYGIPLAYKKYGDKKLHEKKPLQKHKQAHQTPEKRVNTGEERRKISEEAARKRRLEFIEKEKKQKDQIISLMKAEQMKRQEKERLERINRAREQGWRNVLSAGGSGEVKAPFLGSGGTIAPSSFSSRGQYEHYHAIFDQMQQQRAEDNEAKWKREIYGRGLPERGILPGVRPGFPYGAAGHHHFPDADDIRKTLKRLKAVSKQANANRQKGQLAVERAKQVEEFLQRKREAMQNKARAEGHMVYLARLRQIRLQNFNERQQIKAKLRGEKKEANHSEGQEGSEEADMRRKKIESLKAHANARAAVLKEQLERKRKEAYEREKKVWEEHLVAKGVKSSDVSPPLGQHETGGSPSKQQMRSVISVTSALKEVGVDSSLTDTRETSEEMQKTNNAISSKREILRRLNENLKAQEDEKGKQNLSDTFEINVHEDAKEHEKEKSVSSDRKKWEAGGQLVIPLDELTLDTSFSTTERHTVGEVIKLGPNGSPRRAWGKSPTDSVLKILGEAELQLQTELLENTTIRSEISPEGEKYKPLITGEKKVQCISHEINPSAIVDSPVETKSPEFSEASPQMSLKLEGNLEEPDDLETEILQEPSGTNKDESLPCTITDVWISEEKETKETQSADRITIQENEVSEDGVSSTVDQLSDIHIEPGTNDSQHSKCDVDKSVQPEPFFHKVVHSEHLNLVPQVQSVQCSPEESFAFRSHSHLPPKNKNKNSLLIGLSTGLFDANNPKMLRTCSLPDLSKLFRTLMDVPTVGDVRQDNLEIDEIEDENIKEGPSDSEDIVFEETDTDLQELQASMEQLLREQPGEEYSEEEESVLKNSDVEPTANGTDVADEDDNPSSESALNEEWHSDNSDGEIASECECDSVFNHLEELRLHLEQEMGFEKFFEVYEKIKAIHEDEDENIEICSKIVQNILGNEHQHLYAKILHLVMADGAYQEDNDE
PRKCD (human), sequence (Q05655 whole entry, looked up): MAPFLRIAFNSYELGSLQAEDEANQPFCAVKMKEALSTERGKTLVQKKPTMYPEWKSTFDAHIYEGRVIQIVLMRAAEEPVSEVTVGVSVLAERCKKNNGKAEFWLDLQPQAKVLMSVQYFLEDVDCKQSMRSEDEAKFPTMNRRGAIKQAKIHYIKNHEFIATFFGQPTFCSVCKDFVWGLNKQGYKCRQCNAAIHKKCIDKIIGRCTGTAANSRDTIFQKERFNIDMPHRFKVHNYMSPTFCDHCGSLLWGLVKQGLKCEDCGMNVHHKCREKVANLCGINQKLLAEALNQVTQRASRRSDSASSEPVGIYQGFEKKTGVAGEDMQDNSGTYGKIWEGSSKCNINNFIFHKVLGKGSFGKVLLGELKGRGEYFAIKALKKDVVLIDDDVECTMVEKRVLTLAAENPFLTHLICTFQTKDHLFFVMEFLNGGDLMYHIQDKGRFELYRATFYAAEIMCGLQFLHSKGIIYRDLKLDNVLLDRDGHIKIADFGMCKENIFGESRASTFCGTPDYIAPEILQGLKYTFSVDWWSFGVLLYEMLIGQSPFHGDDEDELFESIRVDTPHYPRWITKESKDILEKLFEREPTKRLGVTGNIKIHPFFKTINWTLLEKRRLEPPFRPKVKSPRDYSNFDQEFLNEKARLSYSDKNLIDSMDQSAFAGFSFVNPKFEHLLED
RPS6KA5 KD2 (human), sequence (O75582 whole entry, looked up): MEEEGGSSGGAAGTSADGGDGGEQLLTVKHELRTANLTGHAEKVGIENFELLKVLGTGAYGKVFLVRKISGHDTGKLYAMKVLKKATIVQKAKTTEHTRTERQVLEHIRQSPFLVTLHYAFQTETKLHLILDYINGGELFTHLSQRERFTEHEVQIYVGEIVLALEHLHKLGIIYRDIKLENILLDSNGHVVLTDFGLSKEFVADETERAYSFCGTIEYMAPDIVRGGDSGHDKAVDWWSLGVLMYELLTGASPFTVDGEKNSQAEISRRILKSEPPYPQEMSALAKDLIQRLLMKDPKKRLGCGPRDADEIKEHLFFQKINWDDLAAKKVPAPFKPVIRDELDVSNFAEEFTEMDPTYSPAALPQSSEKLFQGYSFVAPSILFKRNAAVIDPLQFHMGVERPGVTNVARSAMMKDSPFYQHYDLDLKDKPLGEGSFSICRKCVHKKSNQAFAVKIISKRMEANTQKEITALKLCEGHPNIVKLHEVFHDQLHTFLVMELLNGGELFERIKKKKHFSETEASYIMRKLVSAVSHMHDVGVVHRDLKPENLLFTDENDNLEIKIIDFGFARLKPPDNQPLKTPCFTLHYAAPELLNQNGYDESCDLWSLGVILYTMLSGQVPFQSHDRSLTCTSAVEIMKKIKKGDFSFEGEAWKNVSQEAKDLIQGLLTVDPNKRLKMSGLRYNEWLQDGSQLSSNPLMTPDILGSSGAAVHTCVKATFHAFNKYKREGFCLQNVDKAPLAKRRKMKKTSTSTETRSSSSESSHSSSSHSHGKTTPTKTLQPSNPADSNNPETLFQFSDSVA
IRAK1 (human), sequence (P51617 whole entry, looked up): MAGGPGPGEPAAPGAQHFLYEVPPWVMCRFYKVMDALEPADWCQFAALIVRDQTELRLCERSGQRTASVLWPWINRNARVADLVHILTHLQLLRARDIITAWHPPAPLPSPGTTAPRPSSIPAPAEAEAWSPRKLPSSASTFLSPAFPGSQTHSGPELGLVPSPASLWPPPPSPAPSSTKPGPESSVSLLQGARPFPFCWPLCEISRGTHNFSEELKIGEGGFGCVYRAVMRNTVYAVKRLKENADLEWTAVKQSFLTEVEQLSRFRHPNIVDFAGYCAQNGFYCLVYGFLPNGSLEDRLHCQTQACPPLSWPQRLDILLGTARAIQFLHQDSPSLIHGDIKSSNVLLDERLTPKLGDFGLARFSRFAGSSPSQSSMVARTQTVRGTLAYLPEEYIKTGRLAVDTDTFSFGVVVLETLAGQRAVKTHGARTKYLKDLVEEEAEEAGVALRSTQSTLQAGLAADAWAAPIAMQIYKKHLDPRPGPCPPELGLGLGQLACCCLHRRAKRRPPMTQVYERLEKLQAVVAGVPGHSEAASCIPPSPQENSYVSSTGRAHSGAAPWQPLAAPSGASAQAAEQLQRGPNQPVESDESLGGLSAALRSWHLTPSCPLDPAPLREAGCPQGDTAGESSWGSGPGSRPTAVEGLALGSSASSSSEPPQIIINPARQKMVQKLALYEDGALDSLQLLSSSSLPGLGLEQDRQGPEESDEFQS
FGFR2 (human), sequence (P21802 whole entry, looked up): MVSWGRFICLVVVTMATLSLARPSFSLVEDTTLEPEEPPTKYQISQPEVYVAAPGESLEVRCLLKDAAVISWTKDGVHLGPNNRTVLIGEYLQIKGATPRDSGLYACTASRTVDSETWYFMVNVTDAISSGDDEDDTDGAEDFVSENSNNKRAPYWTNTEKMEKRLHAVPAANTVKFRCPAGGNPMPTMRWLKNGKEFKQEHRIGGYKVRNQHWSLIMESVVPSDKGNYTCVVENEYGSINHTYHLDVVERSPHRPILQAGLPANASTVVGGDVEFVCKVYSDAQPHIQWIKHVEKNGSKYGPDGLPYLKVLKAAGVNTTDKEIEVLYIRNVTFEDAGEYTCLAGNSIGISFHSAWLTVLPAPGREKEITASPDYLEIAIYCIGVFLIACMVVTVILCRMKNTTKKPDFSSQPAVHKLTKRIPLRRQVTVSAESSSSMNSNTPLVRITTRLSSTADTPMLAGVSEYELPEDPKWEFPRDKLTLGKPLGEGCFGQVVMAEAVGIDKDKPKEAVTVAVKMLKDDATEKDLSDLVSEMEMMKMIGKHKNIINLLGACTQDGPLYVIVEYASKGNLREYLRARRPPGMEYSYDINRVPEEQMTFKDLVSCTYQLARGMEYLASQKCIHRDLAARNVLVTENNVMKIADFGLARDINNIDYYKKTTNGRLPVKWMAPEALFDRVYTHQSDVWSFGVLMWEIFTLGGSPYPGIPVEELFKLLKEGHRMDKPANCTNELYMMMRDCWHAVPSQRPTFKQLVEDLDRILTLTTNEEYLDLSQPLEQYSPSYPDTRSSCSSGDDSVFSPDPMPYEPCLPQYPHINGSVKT

## O=c1c(-c2ccc(F)cc2)c(-c2ccncc2)[nH]n1-c1ccc(Cl)cc1
[1]
  residual activity: 91.7%
[2]
  residual activity: 95.1%
[3]
  residual activity: 83.6%
[4]
  residual activity: 89.1%
[5]
  residual activity: 97.4%
[6]
  residual activity: 101%
[7]
  residual activity: 99%
[8]
  residual activity: 26.7%
[9]
  residual activity: 104%
[10]
  residual activity: 84.4%
[11]
  residual activity: 97.2%
[12]
  residual activity: 73.2%
[13]
  residual activity: 94%
[14]
  residual activity: 78.5%
[15]
  residual activity: 89%
[16]
  residual activity: 103%
[17]
  residual activity: 103%
[18]
  residual activity: 103%
[19]
  residual activity: 86%
[20]
  residual activity: 102%
[21]
  residual activity: 101%
[22]
  residual activity: 101%
[23]
  residual activity: 78.7%
[24]
  residual activity: 85.4%
[25]
  residual activity: 93.9%
[26]
  residual activity: 106%
[27]
  residual activity: 107%
[28]
  residual activity: 88.7%
[29]
  residual activity: 104%
[30]
  residual activity: 96.3%
[31]
  residual activity: 92.6%
[32]
  residual activity: 89%
[33]
  residual activity: 73.4%
[34]
  residual activity: 91.7%
[35]
  residual activity: 99.6%
[36]
  residual activity: 93.5%
[37]
  residual activity: 101%
[38]
  residual activity: 104%
[39]
  residual activity: 94.4%
[40]
  residual activity: 112%
[41]
  residual activity: 112%
[42]
  residual activity: 101%

## COc1cccc(-c2cc(=O)c3ccccc3o2)c1N
[1]
  residual activity: 92.7%
[2]
  residual activity: 102%
[3]
  residual activity: 83.7%
[4]
  residual activity: 95.3%
[5]
  residual activity: 99.9%
[6]
  residual activity: 103%
[7]
  residual activity: 103%
[8]
  residual activity: 99.1%
[9]
  residual activity: 107%
[10]
  residual activity: 96.3%
[11]
  residual activity: 101%
[12]
  residual activity: 94.7%
[13]
  residual activity: 97.8%
[14]
  residual activity: 89.5%
[15]
  residual activity: 116%
[16]
  residual activity: 98.8%
[17]
  residual activity: 98.9%
[18]
  residual activity: 102%
[19]
  residual activity: 88.6%
[20]
  residual activity: 94.2%
[21]
  residual activity: 98.9%
[22]
  residual activity: 101%
[23]
  residual activity: 81.2%
[24]
  residual activity: 86.1%
[25]
  residual activity: 93.4%
[26]
  residual activity: 102%
[27]
  residual activity: 102%
[28]
  residual activity: 82.9%
[29]
  residual activity: 98.3%
[30]
  residual activity: 98%
[31]
  residual activity: 106%
[32]
  residual activity: 87%
[33]
  residual activity: 103%
[34]
  residual activity: 91.2%
[35]
  residual activity: 107%
[36]
  residual activity: 96.4%
[37]
  residual activity: 102%
[38]
  residual activity: 104%
[39]
  residual activity: 91.7%
[40]
  residual activity: 94.3%
[41]
  residual activity: 99.2%
[42]
  residual activity: 94.7%

## COc1cc2ncnc(Nc3ccc(O)c(Br)c3)c2cc1OC
[1]
  residual activity: 128%
[2]
  residual activity: 63.5%
[3]
  residual activity: 85.5%
[4]
  residual activity: 95.7%
[5]
  residual activity: 97%
[6]
  residual activity: 92.8%
[7]
  residual activity: 96.7%
[8]
  residual activity: 89.7%
[9]
  residual activity: 100%
[10]
  residual activity: 95.4%
[11]
  residual activity: 52.2%
[12]
  residual activity: 29.1%
[13]
  residual activity: 95.9%
[14]
  residual activity: 74.7%
[15]
  residual activity: 102%
[16]
  residual activity: 75.5%
[17]
  residual activity: 81.5%
[18]
  residual activity: 97%
[19]
  residual activity: 98%
[20]
  residual activity: 78.2%
[21]
  residual activity: 84.6%
[22]
  residual activity: 87.3%
[23]
  residual activity: 90.5%
[24]
  residual activity: 105%
[25]
  residual activity: 93.1%
[26]
  residual activity: 100%
[27]
  residual activity: 104%
[28]
  residual activity: 88.3%
[29]
  residual activity: 96.6%
[30]
  residual activity: 95.2%
[31]
  residual activity: 97.3%
[32]
  residual activity: 86.3%
[33]
  residual activity: 69.7%
[34]
  residual activity: 86.9%
[35]
  residual activity: 21.4%
[36]
  residual activity: 93.4%
[37]
  residual activity: 92.2%
[38]
  residual activity: 90.4%
[39]
  residual activity: 63%
[40]
  residual activity: 84.7%
[41]
  residual activity: 108%
[42]
  residual activity: 97.4%

## O=C1NC(=O)c2cc(Nc3ccc(F)cc3)c(Nc3ccc(F)cc3)cc21
[1]
  residual activity: 92.3%
[2]
  residual activity: 99.7%
[3]
  residual activity: 94.3%
[4]
  residual activity: 94.3%
[5]
  residual activity: 100%
[6]
  residual activity: 104%
[7]
  residual activity: 88.1%
[8]
  residual activity: 109%
[9]
  residual activity: 96.7%
[10]
  residual activity: 96.6%
[11]
  residual activity: 108%
[12]
  residual activity: 99.4%
[13]
  residual activity: 102%
[14]
  residual activity: 97.2%
[15]
  residual activity: 96.6%
[16]
  residual activity: 88.5%
[17]
  residual activity: 91.5%
[18]
  residual activity: 86.1%
[19]
  residual activity: 93.5%
[20]
  residual activity: 90.2%
[21]
  residual activity: 100%
[22]
  residual activity: 98.7%
[23]
  residual activity: 88%
[24]
  residual activity: 96.3%
[25]
  residual activity: 107%
[26]
  residual activity: 109%
[27]
  residual activity: 107%
[28]
  residual activity: 112%
[29]
  residual activity: 102%
[30]
  residual activity: 98%
[31]
  residual activity: 98.2%
[32]
  residual activity: 83.3%
[33]
  residual activity: 86.8%
[34]
  residual activity: 111%
[35]
  residual activity: 104%
[36]
  residual activity: 93.6%
[37]
  residual activity: 103%
[38]
  residual activity: 95.5%
[39]
  residual activity: 92.3%
[40]
  residual activity: 101%
[41]
  residual activity: 102%
[42]
  residual activity: 98.1%
